Values after ≈ are worked out from the molar mass of the structure shown. Read-outs that look alike come from different tables or passages of the source.
Experiments:
[1] = tested on: multidrug-resistant (K1) strain of P. falciparum; experiment: In vitro asexual blood-stage antiplasmodium pLDH assay, K1 strain; assay type: cell-based; details: Plasmodium falciparum, 72 h, n ≥ 3, read-out: In vitro antiplasmodium activity IC50 PfK1 strain
Description: (§1) Compounds were screened against multi-drug-resistant (K1) and sensitive (NF54) strains of P. falciparum in vitro using a parasite lactate dehydrogenase assay (pLDH) (the method is described fully in the Supporting Information). […]
(§2) In vitro Asexual Blood Stage Antiplasmodium Assay
(§3) Parasites were cultured as per the method of Trager and Jensen,1 with modifications. IC50 values were determined using parasite lactate dehydrogenase as a marker for survival (Makler […]
(§4) et al, 1993). The test samples were prepared to a 10 mmol/L stock solution in 100% DMSO.
(§5) Samples were tested as a suspension if not completely dissolved. Further dilutions to the desired starting concentration were freshly prepared in growth media on each occasion of the experiment. The standard antimalarial drugs chloroquine (CQ) and artesunate (Arts) were used as the reference drug in all experiments. A full dose-response was performed for all compounds in a 96-well plate to determine the concentration inhibiting 50% of parasite growth (IC50– value). Test samples were tested at a starting concentration of 6mmol/L, which was then serially diluted 2-fold in growth medium to generate the tested concentration range. The same dilution technique was used for all samples. CQ and Arts were tested from a starting concentration of 1µg/mL. The highest concentration of solvent to which the parasites were exposed was <0.1% and has no measurable effect on the parasite viability (data not shown).
(§6) The assay plate was incubated at 37 °C for 72h in a sealed gas chamber under 3% O2 and 4% CO2 with the balance being N2. After 72h, the wells in the assay plate were gently resuspended, and 15µL from each well was transferred to a duplicate plate containing 100µL of Malstat reagent and 25µL of nitroblue tetrazolium solution in each well. Plates were left to develop for 20 minutes in the dark and then absorbance of each well was quantified using a spectrophotometer at 620nm wavelength.
(§7) The remaining population of parasites at each concentration of the test compound was determined by comparing the absorbance of each well to the absorbance of a well containing […]
(§8) the drug-free control. […]
(§9) The initial 100 µg/mL solution is serially diluted 10-

Solubility = assay type: physicochemical; details: pH 6.5, aqueous buffer
Excerpt: Table 1 In Vitro Antiplasmodium Activity, Cytotoxicity, BHIA, and Solubility | column: Solubility pH 6.5, μM

β-hematin = experiment: β-Hematin inhibition assay (BHIA), cell-free NP-40 mediated; assay type: biochemical; details: mean of n = 3
Description: page 20: fold to attain six assay concentrations of 100-0.001 μg/mL. […] was used as the reference compound in this assay. The highest concentration of DMSO, which was used as the negative control, had no measurable effect on cell viability. After 44 hours of exposure of the cells to the test compounds, a solution of MTT was added. This was followed by an additional 4 hours of incubation at 37 °C. The assay plates were centrifuged, medium removed, and DMSO was added to the crystals. The amount of formazan was ascertained by measuring the absorbance at 540 nm. GraphPad Prism software was then used to generate IC50 values through a non-linear dose-response curve analysis. β-Hematin Inhibition Assay 20 mM stock solutions of controls and test compounds were made in DMSO. A solution […] was added to every well in columns 1-11 of a 96-well plate. 140 μL of water and 40 μL of 305.5 μM NP-40 were added to column 12 to mediate the formation of beta-hematin. 20 μL of test compounds (20 mM) were added to column 12 and 100 μL of this solution serially diluted to column 2, leaving column 1 blank (0 μM of test compound). 178.8 μL aliquot of hematin stock was suspended in 20 ml of a 1 M acetate buffer at pH 4.9. 100 μL of this hematin […] pH 7.4 and 50% pyridine) and 60 μL of acetone were added to all wells. The absorbances of plate wells were recorded at 405 nm on a SpectraMax plate reader. Sigmoidal dose-response curves with variable slopes were fitted to the absorbance data using GraphPad Prism to obtain the IC50 values for each compound. In vitro Microsomal Stability Assay The in vitro microsomal stability assay was performed in duplicate in a 96-well micro titre […] individually in human (pool of 50, mixed gender), rat (pool of 711, male Sprague Dawley) and mouse (pool of 1634, male CD1) liver microsomes (final protein concentration of 0.4 mg/mL; Xenotech, Kansas, USA), suspended in 0.1M phosphate buffer (pH 7.4). Incubations were S20

[2] = tested on: chloroquine-sensitive (NF54) strain of P. falciparum; experiment: In vitro asexual blood-stage antiplasmodium pLDH assay, NF54 strain; assay type: cell-based; details: Plasmodium falciparum
Description: as §1, §2, §3, §4, §5, §6, §7, §8, §9

[3] = In vitro cytotoxicity MTT assay; assay type: cell-based, Chinese hamster; details: Chinese hamster, Chinese hamster ovarian (CHO) cells; MTT assay
Description: (§10) In vitro cytotoxicity was performed on the Chinese Hamster Ovarian cell line by measuring cellular growth and survival calorimetrically through the MTT assay.[29],[30] The formation of tetrazolium salt was used as a measure of chemosensitivity and growth. (Details of this assay is described in the Supporting Information.) page 19: et al, 1993). The test samples were prepared to a 10 mmol/L stock solution in 100% DMSO. Samples were tested as a suspension if not completely dissolved. Further dilutions to the desired starting concentration were freshly prepared in growth media on each occasion of the experiment. The standard antimalarial drugs chloroquine (CQ) and artesunate (Arts) were used as the reference drug in all experiments. A full dose-response was performed for all compounds […] value). Test samples were tested at a starting concentration of 6mmol/L, which was then serially diluted 2-fold in growth medium to generate the tested concentration range. The same dilution technique was used for all samples. CQ and Arts were tested from a starting concentration of 1μg/mL. The highest concentration of solvent to which the parasites were exposed was <0.1% and has no measurable effect on the parasite viability (data not shown). The assay plate was incubated at 37 °C for 72h in a sealed gas chamber under 3% O2 and 4% CO2 with the balance being N2. After 72h, the wells in the assay plate were gently resuspended, and 15μL from each well was transferred to a duplicate plate containing 100μL of Malstat reagent and 25μL of nitroblue tetrazolium solution in each well. Plates were left to develop for 20 minutes in the dark and then absorbance of each well was quantified using a spectrophotometer at 620nm wavelength. The remaining population of parasites at each concentration of the test compound was determined by comparing the absorbance of each well to the absorbance of a well containing the drug-free control. Survival was plotted against concentration and the IC50 values were obtained using a non-linear dose-response curve fitting analysis via the Dotmatics software platform.2 In vitro Cytotoxicity Assay In vitro cytotoxicity was performed on the Chinese Hamster Ovarian cell line by measuring […] diphenyltetrazolium bromide (MTT) assay.3,4 The formation of tetrazolium salt was used as a measure of chemosensitivity and growth. 2 mg/mL stock solutions of the test compounds were prepared in DMSO and stored at -20 °C until required. The stock solution was subsequently diluted with the assay medium to make up an initial concentration of 100 μg/mL. The initial 100 μg/mL solution is serially diluted 10- S19 page 20: fold to attain six assay concentrations of 100-0.001 μg/mL. […] was used as the reference compound in this assay. The highest concentration of DMSO, which was used as the negative control, had no measurable effect on cell viability. After 44 hours of exposure of the cells to the test compounds, a solution of MTT was added. This was followed by an additional 4 hours of incubation at 37 °C. The assay plates were centrifuged, medium removed, and DMSO was added to the crystals. The amount of formazan was ascertained by measuring the absorbance at 540 nm. GraphPad Prism software was then used to generate IC50 values through a non-linear dose-response curve analysis. β-Hematin Inhibition Assay 20 mM stock solutions of controls and test compounds were made in DMSO. A solution […] was added to every well in columns 1-11 of a 96-well plate. 140 μL of water and 40 μL of 305.5 μM NP-40 were added to column 12 to mediate the formation of beta-hematin. 20 μL of test compounds (20 mM) were added to column 12 and 100 μL of this solution serially diluted to column 2, leaving column 1 blank (0 μM of test compound). 178.8 μL aliquot of hematin stock was suspended in 20 ml of a 1 M acetate buffer at pH 4.9. 100 μL of this hematin suspension was then added into each well, and the plates were incubated for ±5 hrs at 37°C. […]

[4] = tested on: Chinese hamster ovarian (CHO) cell line; experiment: In vitro cytotoxicity MTT assay; assay type: cell-based; details: CHO vs PfNF54
Description: as §10

[5] = NF54, pLDH, 72 h, n ≥ 3, read-out: In vitro antiplasmodium activity IC50 PfNF54 strain

IC50 [1]	solubility (Solubility)	IC50 (β-hematin)	IC50 [2, 5]	IC50 ([2]; NF54, controls, strain not stated in footnote, read-out: IC50 of controls in pLDH antiplasmodium assay)	SMILES	IC50 at 44 h [3]	SI (selectivity index) = IC50 CHO/IC50 PfNF54 [4]	IC50 ([2]; NF54, read-out: IC50 of controls in pLDH antiplasmodium assay)
2.34 µM	120 µM (≈ 55 µg/mL)	18 µM	2910 nM		CCN(CCNc1cc2[nH]c(C3CCC(OC)CC3)nc2cn1)Cc1ccc(Cl)cc1O (centres unmarked) [Compound 18, 5-Chloro-2-((ethyl(2-((2-(4-methoxycyclohexyl)-1H-imidazo[4,5-c]pyridin-6-yl)amino)ethyl)amino)methyl)phenol]	> 50 µM	>17.18	
6 µM	185 µM (≈ 74 µg/mL)	444 µM	560 nM		CCN(CCNc1cc2[nH]c(CC3CC3)nc2cn1)Cc1ccc(Cl)cc1O [Compound 8, 5-Chloro-2-(((2-((2-(cyclopropylmethyl)-1H-imidazo[4,5-c]pyridin-6-yl)amino)ethyl)(ethyl)amino)methyl)phenol]	> 50 µM	>89.29	
4.11 µM	135 µM (≈ 48.6 µg/mL)	257 µM	2530 nM		CCN(CCNc1cc2[nH]c(C)nc2cn1)Cc1ccc(Cl)cc1O [Compound 4, 5-Chloro-2-((ethyl(2-((2-methyl-1H-imidazo[4,5-c]pyridin-6-yl)amino)ethyl)amino)methyl)phenol]	> 50 µM	>19.76	
3.68 µM	< 5 µM	31 µM	930 nM		CCN(CCNc1cc2[nH]c(C3CCC(F)(F)CC3)nc2cn1)Cc1ccc(Cl)cc1O [Compound 12, 5-Chloro-2-(((2-((2-(4,4-difluorocyclohexyl)-1H-imidazo[4,5-c]pyridin-6-yl)amino)ethyl)(ethyl)amino)methyl)phenol]	> 50 µM		
					CCN(CC)CCCC(C)Nc1ccnc2cc(Cl)ccc12 (centres unmarked) [chloroquine, reference compound]			12 nM
2.48 µM	150 µM (≈ 66.3 µg/mL)	137 µM	670 nM		CCN(CCNc1cc2[nH]c(C3CCCCCC3)nc2cn1)Cc1ccc(Cl)cc1O [Compound 15, 5-Chloro-2-(((2-((2-cycloheptyl-1H-imidazo[4,5-c]pyridin-6-yl)amino)ethyl)(ethyl)amino)methyl)phenol]	50 µM	74.60	
1.61 µM	125 µM (≈ 52 µg/mL)	225 µM	1670 nM		CCN(CCNc1cc2[nH]c(C3CCOC3)nc2cn1)Cc1ccc(Cl)cc1O (centres unmarked) [Compound 2, 5-Chloro-2-((ethyl(2-((2-(tetrahydrofuran-3-yl)-1H-imidazo[4,5-c]pyridin-6-yl)amino)ethyl)amino)methyl)phenol]	> 50 µM	>29.94	
6 µM	170 µM (≈ 68 µg/mL)	128 µM	670 nM		CCN(CCNc1cc2[nH]c(C3CCC3)nc2cn1)Cc1ccc(Cl)cc1O [Compound 9, 5-Chloro-2-(((2-((2-cyclobutyl-1H-imidazo[4,5-c]pyridin-6-yl)amino)ethyl)(ethyl)amino)methyl)phenol]	> 50 µM	>74.63	
				7 nM	C[C@H]1[C@H](OC(=O)CCC(=O)O)O[C@@H]2O[C@@]3(C)CC[C@H]4[C@H](C)CC[C@@H]1[C@@]24OO3 [artesunate, reference compound]			
			49 nM		O=[N+]([O-])c1ccc(NCCN(CCNc2cc3[nH]c(-c4cccc(C(F)(F)F)c4)nc3cn2)Cc2ccc(Cl)cc2O)c2nonc12 [Compound 14-NBD, 5-Chloro-2-(((2-((7-nitrobenzo[c][1,2,5]oxadiazol-4-yl)amino)ethyl)(2-((2-(3-(trifluoromethyl)phenyl)-1H-imidazo[4,5-c]pyridin-6-yl)amino)ethyl)amino)methyl)phenol]			
1.89 µM	135 µM (≈ 67 µg/mL)	127 µM	560 nM		CCN(CCNc1cc2[nH]c([C@H]3CC[C@H](C(F)(F)F)CC3)nc2cn1)Cc1ccc(Cl)cc1O [Compound 16, 5-Chloro-2-((ethyl(2-((2-((1r,4r)-4-(trifluoromethyl)cyclohexyl)-1H-imidazo[4,5-c]pyridin-6-yl)amino)ethyl)amino)methyl)phenol]	> 50 µM	>89.29	
